Assay results: US10336762B2 (priority 2017, dated 2019)
Where two headings read alike, the source gives them in different places.

Columns and labels:
[1] = target: IRAK4 enzyme (Homo sapiens (Human), UniProt Q9NWZ3); experiment: biochemical; type: biochemical; details: IRAK4 enzyme, 500 μM ATP
[2] = test system: TNFα; experiment: cells; type: cell-based, human; details: LPS-stimulated human monocytes, read-out: EC50 TNF
[3] = Homo sapiens, Monocyte, TNFα by TR-FRET
[4] = Homo sapiens, Monocyte, TNFα content

Chain of IRAK4 enzyme (Q9NWZ3 whole entry): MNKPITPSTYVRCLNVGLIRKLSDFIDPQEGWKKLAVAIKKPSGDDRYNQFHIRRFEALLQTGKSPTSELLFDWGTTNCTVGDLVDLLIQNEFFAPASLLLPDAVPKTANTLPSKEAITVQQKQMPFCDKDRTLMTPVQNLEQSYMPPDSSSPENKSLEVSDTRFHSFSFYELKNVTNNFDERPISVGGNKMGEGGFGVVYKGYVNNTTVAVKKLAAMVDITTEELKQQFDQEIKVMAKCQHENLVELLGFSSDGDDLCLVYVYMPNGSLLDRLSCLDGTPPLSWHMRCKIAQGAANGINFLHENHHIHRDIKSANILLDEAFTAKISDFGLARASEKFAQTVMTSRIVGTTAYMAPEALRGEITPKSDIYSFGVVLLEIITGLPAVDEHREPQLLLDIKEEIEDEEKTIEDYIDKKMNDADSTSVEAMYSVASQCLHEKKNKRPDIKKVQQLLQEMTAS

Row | Structure (SMILES) | IC50 ([1]; TR-FRET) | EC50 [2, 3] | EC50 [2, 4] | IC50 ([1]; TR-FRET (HTRF)) | EC50 ([2]; TNFα content)
1 | COC(=O)N1CC[C@H](CNc2cc(-c3ccc4cc(C#N)cnn34)ncc2C(=O)NC[C@@H](F)C(C)(C)O)C1 [Example 900, (R)-methyl 3-(((2-(3-cyanopyrrolo[1,2-b]pyridazin-7-yl)-5-(((R)-2-fluoro-3-hydroxy-3-methylbutyl)carbamoyl)pyridin-4-yl)amino)methyl) pyrrolidine-1-carboxylate] | 2 nM | 134 nM |  |  | 
2 | CC(C)(O)[C@H](F)CNC(=O)c1cnc(-c2ccc3cc(C#N)cnn23)cc1NC[C@H]1CCN(CC(F)(F)F)C1 [Example 901, 6-(3-cyanopyrrolo[1,2-b]pyridazin-7-yl)-N-((R)-2-fluoro-3-hydroxy-3-methylbutyl)-4-((((R)-1-(2,2,2-trifluoroethyl)pyrrolidin-3-yl)methyl)amino)nicotinamide] | 3 nM | 126 nM |  |  | 
3 | CC(C)Nc1cc(-c2ccc3cc(C(N)=O)cnn23)ncc1C(=O)NCC1CCS(=O)(=O)C1 (centres unmarked) [Example 9, 7-(5-(((1,1-dioxidotetrahydrothiophen-3-yl)methyl)carbamoyl)-4-(isopropylamino)pyridin-2-yl)pyrrolo[1,2-b]pyridazine-3-carboxamide] | 16 nM |  | 5100 nM |  | 
4 | CC(C)(O)[C@H](F)CNC(=O)c1cnc(-c2ccc3cc(C#N)cnn23)cc1Nc1ccc(-c2nncs2)cc1 [Example 771, (R)-4-((4-(1,3,4-thiadiazol-2-yl)phenyl)amino)-6-(3-cyanopyrrolo[1,2-b]pyridazin-7-yl)-N-(2-fluoro-3-hydroxy-3-methylbutyl)nicotinamide] |  |  | 37 nM | < 1 nM | 
5 | CC(=O)N1Cc2ccc(Nc3cc(-c4ccc5cc(C#N)cnn45)ncc3C(=O)NC[C@@H](F)C(C)(C)O)cc2C1 [Example 197, (R)-4-((2-acetylisoindolin-5-yl)amino)-6-(3-cyanopyrrolo[1,2-b]pyridazin-7-yl)-N-(2-fluoro-3-hydroxy-3-methylbutyl)nicotinamide] | 1 nM |  | 42 nM |  | 
6 | CC(C)(O)[C@H](F)CNC(=O)c1cnc(-c2ccc3cc(C#N)cnn23)cc1Nc1cnc(-c2cn[nH]c2)cn1 [Example 972, (R)-4-((5-(1H-pyrazol-4-yl)pyrazin-2-yl)amino)-6-(3-cyanopyrrolo[1,2-b]pyridazin-7-yl)-N-(2-fluoro-3-hydroxy-3-methylbutyl)nicotinamide] | < 1 nM | 12 nM |  |  | 
7 | CC(C)(O)[C@H](F)CNC(=O)c1cnc(-c2ccc3cc(C#N)cnn23)cc1Nc1ccn2ccnc2c1 [Example 570, (R)-6-(3-cyanopyrrolo[1,2-b]pyridazin-7-yl)-N-(2-fluoro-3-hydroxy-3-methyl-butyl)-4-(imidazo[1,2-a]pyridin-7-ylamino) nicotinamide] |  |  | 80 nM | < 1 nM | 
8 | CC(C)(O)[C@H](F)CNC(=O)c1cnc(-c2ccc3cc(C#N)cnn23)cc1NCCc1ccc(F)cc1 [Example 707, (R)-6-(3-cyanopyrrolo[1,2-b]pyridazin-7-yl)-N-(2-fluoro-3-hydroxy-3-methylbutyl)-4-((4-fluorophenethyl)amino) nicotinamide] |  |  | 42 nM | 1 nM | 
9 | COC(=O)NC[C@@H]1CCCN1c1ccc(Nc2cc(-c3ccc4cc(C#N)cnn34)ncc2C(=O)NC[C@@H](F)C(C)(C)O)cn1 [Example 879, methyl (((S)-1-(5-((2-(3-cyanopyrrolo[1,2-b]pyridazin-7-yl)-5-(((R)-2-fluoro-3-hydroxy-3-methylbutyl)carbamoyl)pyridin-4-yl)amino)pyridin-2-yl)pyrrolidin-2-yl)methyl)carbamate] | 1 nM | 225 nM |  |  | 
10 | CC(C)(O)[C@H](F)CNC(=O)c1cnc(-c2ccc3cc(C#N)cnn23)cc1N[C@H]1CC[C@H](c2nncs2)CC1 [Example 642, 4-(((1r,4R)-4-(1,3,4-thiadiazol-2-yl)cyclo-hexyl)amino)-6-(3-cyanopyrrolo[1,2-b]pyridazin-7-yl)-N-((R)-2-fluoro-3-hydroxy-3-methylbutyl)nicotinamide] |  |  | 13 nM | < 1 nM | 
11 | CC(C)(O)[C@H](F)CNC(=O)c1cnc(-c2ccc3cc(C#N)cnn23)cc1N[C@H]1C[C@@H]2CN(S(C)(=O)=O)C[C@@H]2C1 [Example 250, 6-(3-cyanopyrrolo[1,2-b]pyridazin-7-yl)-N-((R)-2-fluoro-3-hydroxy-3-methylbutyl)-4-(((3aR,5s,6aS)-2-(methylsulfonyl)octa-hydrocyclopenta[c]pyrrol-5-yl)amino) nicotinamide] | 1 nM |  | 37 nM |  | 
12 | COC(=O)NCC1(F)CC(Nc2cc(-c3ccc4cc(C#N)cnn34)ncc2C(=O)NC[C@@H](F)C(C)(C)O)C1 (single isomer, unassigned) [Example 764] |  |  |  | < 1 nM | 8 nM
13 | CC(C)(O)[C@H](F)CNC(=O)c1cnc(-c2ccc3cc(C#N)cnn23)cc1Nc1ccc2cn[nH]c2c1 [Example 574, (R)-4-((1H-indazol-6-yl)amino)-6-(3-cyano-pyrrolo[1,2-b]pyridazin-7-yl)-N-(2-fluoro-3-hydroxy-3-methylbutyl) nicotinamide] |  |  | 57 nM | < 1 nM | 
14 | Cc1ncoc1C12CCC(Nc3cc(-c4ccc5cc(C#N)cnn45)ncc3C(=O)NC[C@@H](F)C(C)(C)O)(CC1)CO2 [Example 634, (R)-6-(3-cyanopyrrolo[1,2-b]pyridazin-7-yl)-N-(2-fluoro-3-hydroxy-3-methylbutyl)-4-((1-(4-methyloxazol-5-yl)-2-oxabicyclo[2.2.2]octan-4-yl)amino)nicotinamide] |  |  | 7 nM | < 1 nM | 
15 | COC(=O)N[C@H]1CC[C@H](Nc2cc(-c3ccc4cc(C#N)cnn34)ncc2C(=O)NC[C@@H](F)C(C)(C)O)CC1 [Example 314, methyl ((1R,4r)-4-((2-(3-cyanopyrrolo[1,2-b]pyridazin-7-yl)-5-(((R)-2-fluoro-3-hydroxy-3-methylbutyl)carbamoyl)pyridin-4-yl)amino)cyclo-hexyl)carbamate] | < 1 nM |  | 20 nM |  | 
16 | CC(C)(O)[C@H](F)CNC(=O)c1cnc(-c2ccc3cc(C#N)cnn23)cc1Nc1ccc(F)nc1 [Example 599, (R)-6-(3-cyano-pyrrolo[1,2-b]pyridazin-7-yl)-N-(2-fluoro-3-hydroxy-3-methylbutyl)-4-((6-fluoro-pyridin-3-yl)amino) nicotinamide] |  |  | 68 nM | < 1 nM | 
17 | CC(C)Nc1cc(-c2ccc3cc(C#N)cnn23)ncc1C(=O)NCC(O)C(C)(C)O (centres unmarked) [Example 330, 6-(3-cyanopyrrolo[1,2-b]pyridazin-7-yl)-N-(2,3-dihydroxy-3-methyl-butyl)-4-(isopropylamino) nicotinamide] | 6 nM |  | 171 nM |  | 
18 | CC(C)(O)[C@H](F)CNC(=O)c1cnc(-c2ccc3cc(C#N)cnn23)cc1N[C@H]1CC[C@H](NC(=O)OCC2CC2)CC1 [Example 287, cyclopropylmethyl ((1R,4r)-4-((2-(3-cyanopyrrolo[1,2-b]pyridazin-7-yl)-5-(((R)-2-fluoro-3-hydroxy-3-methylbutyl)carbamoyl)pyridin-4-yl)amino)cyclohexyl)carbamate] | 1 nM |  | 147 nM |  | 
19 | COC(=O)N[C@H]1CC[C@H](Nc2cc(-c3ccc4cc(C#N)cnn34)ncc2C(=O)NC[C@@H](F)C(C)(C)OC(C)=O)CC1 [Example 293, (R)-4-(6-(3-cyanopyrrolo[1,2-b]pyridazin-7-yl)-4-(((1r,4R)-4-((methoxycarbonyl)amino)cyclohexyl)amino)nicotinamido)-3-fluoro-2-methylbutan-2-yl acetate] | 1 nM |  | 49 nM |  | 
20 | CN(C)C(=O)[C@H](F)CNC(=O)c1cnc(-c2ccc3cc(C#N)cnn23)cc1NC12CCC(O)(CC1)CC2 [Example 946, (R)-6-(3-cyanopyrrolo[1,2-b]pyridazin-7-yl)-N-(3-(dimethylamino)-2-fluoro-3-oxopropyl)-4-((4-hydroxybicyclo[2.2.2]octan-1-yl)amino) nicotinamide] | 1 nM | 120 nM |  |  | 
21 | CC(C)(O)[C@H](F)CNC(=O)c1cnc(-c2ccc3cc(C#N)cnn23)cc1N[C@@H]1CC2CN(C(N)=O)C[C@H]2C1 (stereo partly drawn) [Example 238, (3aR,5s,6aS)-5-((2-(3-cyanopyrrolo[1,2-b]pyridazin-7-yl)-5-(((R)-2-fluoro-3-hydroxy-3-methylbutyl)carbamoyl)pyridin-4-yl)amino)hexa-hydrocyclopenta[c]pyrrole-2(1H)-carboxamide] | < 1 nM |  | 225 nM |  | 
22 | CC(C)(O)[C@H](F)CNC(=O)c1cnc(-c2ccc3cc(C#N)cnn23)cc1N[C@@H]1CCOC[C@H]1F [Example 150, 6-(3-cyanopyrrolo[1,2-b]pyridazin-7-yl)-N-((R)-2-fluoro-3-hydroxy-3-methylbutyl)-4-(((3S,4R)-3-fluorotetrahydro-2H-pyran-4-yl)amino)nicotinamide] | < 1 nM |  | 51 nM |  | 
23 | CC(=O)N1CCC(Nc2cc(-c3ccc4cc(C#N)cnn34)ncc2C(=O)NC[C@@H](F)C(C)(C)O)CC1 [Example 16, (R)-4-((1-acetylpiperidin-4-yl)amino)-6-(3-cyanopyrrolo[1,2-b]pyridazin-7-yl)-N-(2-fluoro-3-hydroxy-3-methylbutyl)nicotinamide] | 2 nM |  | 204 nM |  | 
24 | CC(C)(O)[C@H](F)CNC(=O)c1cnc(-c2ccc3cc(C#N)cnn23)cc1N[C@@H]1C[C@@H]2CC[C@H]1O2 [Example 93, 4-(((1R,2R,4S)-7-oxabicyclo[2.2.1]heptan-2-yl)amino)-6-(3-cyano-pyrrolo[1,2-b]pyridazin-7-yl)-N-((R)-2-fluoro-3-hydroxy-3-methylbutyl)nicotinamide] | 1 nM |  | 78 nM |  | 
25 | N#Cc1cnn2c(-c3cc(NC45CCC(O)(CC4)CC5)c(C(=O)NCC(=O)N4CCC4)cn3)ccc2c1 [Example 923, N-(2-(azetidin-1-yl)-2-oxoethyl)-6-(3-cyanopyrrolo[1,2-b]pyridazin-7-yl)-4-((4-hydroxybicyclo[2.2.2]octan-1-yl)amino) nicotinamide] | < 1 nM | 52 nM |  |  | 
